Source: patent publication US9914724B2, “C-aryl glycosid derivatives, pharmaceutical composition, preparation process and uses thereof” (SHANGHAI DE NOVO PHARMATECH CO. LTD., priority 2014, dated 2018)

How the values were obtained:
SGLT-2 = target: T1, SGLT-2 (Homo sapiens, UniProt P31639); assay: [14C]-AMG absorption in stable SGLT2 expressing Flp-in CHO cells (SGLT-2 activity screening assay); type: cell-based; conditions: 14C-AMG uptake, 37° C. 1 h, 1% DMSO
T1 sequence (P31639 1-672): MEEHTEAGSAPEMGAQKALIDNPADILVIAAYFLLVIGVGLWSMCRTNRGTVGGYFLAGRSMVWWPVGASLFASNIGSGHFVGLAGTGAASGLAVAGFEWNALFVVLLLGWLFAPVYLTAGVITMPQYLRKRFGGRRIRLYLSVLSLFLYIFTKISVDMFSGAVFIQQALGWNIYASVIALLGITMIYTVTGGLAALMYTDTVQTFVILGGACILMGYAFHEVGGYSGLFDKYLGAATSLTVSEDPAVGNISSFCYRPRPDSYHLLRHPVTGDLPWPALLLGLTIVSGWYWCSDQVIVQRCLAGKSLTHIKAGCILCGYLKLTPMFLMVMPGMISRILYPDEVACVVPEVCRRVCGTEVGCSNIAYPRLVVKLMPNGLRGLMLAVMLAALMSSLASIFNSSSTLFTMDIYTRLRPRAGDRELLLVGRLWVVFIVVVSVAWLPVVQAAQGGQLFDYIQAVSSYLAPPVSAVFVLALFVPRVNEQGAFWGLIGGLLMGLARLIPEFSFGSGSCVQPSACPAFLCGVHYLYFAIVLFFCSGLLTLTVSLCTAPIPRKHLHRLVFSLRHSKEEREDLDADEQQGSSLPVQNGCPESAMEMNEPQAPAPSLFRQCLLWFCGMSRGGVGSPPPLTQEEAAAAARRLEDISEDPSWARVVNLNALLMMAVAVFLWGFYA
Source text: (§1) Example 1: [^14C]-AMG Absorption in Stable SGLT1 and SGLT2 Expressing Flp-in CHO Cells (SGLT-1 and SGLT-2 Activity Screening Assay)
(§2) SGLT-1 and SGLT-2 cDNA clones were purchased from OriGene. After sequencing verification, the expression vectors were constructed based on pcDNA5/FRT using conventional molecular biology method. The expression vector was transfected into Flp-in CHO cells using Lipofectamin 2000. The transfected cells were subject hygromycin selection. The single clones of cells were selected by serial dilutions 4-5 weeks after transfection. The expression of SGLT-1 ? SGLT-2 were confirmed by RT-PCR and functional assay and cell line with strong signal was selected for subsequent study.
(§3) Culture of stable SGLT-1 and SGLT-2 expressing Flp-in CHO cell line: the culture media contain F12 medium (Invitrogen), 500 μg/ml hygromycin (Calbiochem) and 10% FBS (Invitrogen). Upon 80% confluency, the cells in the T75 flask were washed three times with PBS (Invitrogen), and 5 mL of Trpsin-EDTA solution (Invitrogen) was then added. The flask was gently rotated so that all the cells were submerged in the digestion solution. After the cells detach, 10 mL of culture medium was added and single cell suspension was prepared by pipetting up and down. The cell concentration was adjusted to 3×10^5/mL, 100 μL/well was added onto clear bottom 96-well plate (Corning).
(§4) The cells were ready for absorption assay once they attached after overnight culture. 12 h after cell plating, the cells were washed once with 150 μL/well absorption solution KRH-NMG (120 mM NMG, 4.7 mM KCl, 1.2 mM MgCl2, 2.2 mM CaCl2, 10 mM HEPES, pH 7.4 1 mM Tris). The solution was then removed from the well. 2.5 μCi/mL ^14C labeled AMG (PerkinElmer) Buffer KRH-Na+ (120 mM NaCl, 4.7 mM KCl, 1.2 mM MgCl2, 2.2 mM CaCl2, 10 mM HEPES, pH 7.4 1 mM Tris) was added at […] after washing with Buffer KRH-Na+ and KRH-NMG. The corresponding compound I was immediately added at 5 μL/well, ensuring the concentration of Dimethyl Sulfoxide was 1% (v/v). The plate was subsequently incubated at 37° C. for 1 h, after which 150 μL of ice cold wash buffer (120 mM NaCl, 4.7 mM KCl, 1.2 mM MgCl2, 2.2 mM CaCl2, 10 mM HEPES, 0.5 mM phlorizin, pH 7.4 1 mM Tris) was immediately added to terminate the reaction. Each well was washed three times with wash buffer and finally the solution was removed. Caution was taken to avoid cell detachment during the procedure. 20 μL/well of Lysis Buffer (0.1 mM NaOH) was added, the plate was vortexed at 900 rpm for 5 min. 80 μL/well of scintillation solution Microsint40 was added, and vortexed at 900 rpm for 5 min. The radioactivity was assayed using MicroBeta Trilux (PerkinElmer). The data was analyzed and IC50 of the compounds was calculated using XL-fit software.

SGLT-1 = target: T2, SGLT-1 (Homo sapiens, UniProt P13866); assay: [14C]-AMG absorption in stable SGLT1 expressing Flp-in CHO cells (SGLT-1 activity screening assay); type: cell-based; conditions: 14C-AMG uptake, 37° C. 1 h, 1% DMSO
T2 sequence (P13866 1-664): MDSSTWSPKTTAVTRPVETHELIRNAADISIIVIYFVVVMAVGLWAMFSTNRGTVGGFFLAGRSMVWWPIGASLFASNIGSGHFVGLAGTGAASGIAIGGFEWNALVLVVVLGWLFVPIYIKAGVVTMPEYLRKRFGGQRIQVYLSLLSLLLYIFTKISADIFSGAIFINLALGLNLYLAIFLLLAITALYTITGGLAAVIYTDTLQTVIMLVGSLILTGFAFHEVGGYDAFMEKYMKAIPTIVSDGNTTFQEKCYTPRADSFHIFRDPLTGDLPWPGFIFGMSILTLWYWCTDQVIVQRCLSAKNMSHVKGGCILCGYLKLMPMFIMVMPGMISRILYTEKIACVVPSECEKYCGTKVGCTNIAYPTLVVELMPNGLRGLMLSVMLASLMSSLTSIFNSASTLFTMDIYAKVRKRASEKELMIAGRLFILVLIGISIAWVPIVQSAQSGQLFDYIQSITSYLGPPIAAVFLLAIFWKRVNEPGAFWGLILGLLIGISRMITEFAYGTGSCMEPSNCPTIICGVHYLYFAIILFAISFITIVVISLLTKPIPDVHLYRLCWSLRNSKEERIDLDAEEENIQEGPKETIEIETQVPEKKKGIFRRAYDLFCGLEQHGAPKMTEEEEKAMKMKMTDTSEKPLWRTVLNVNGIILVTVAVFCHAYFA
Source text: as §1, §2, §3, §4

| SMILES | IC50 (SGLT-2) [nM] | IC50 (SGLT-1) [nM] |
| --- | --- | --- |
| OC[C@H]1O[C@@H](c2ccc(F)c(Cc3ccc(OCc4cc5ccccc5o4)cc3)c2)[C@H](O)[C@@H](O)[C@@H]1O [Compound I-2, (2S,3R,4R,5S,6R)-2-(3-(4-(benzofuran-2-ylmethoxy)benzyl)-4-fluorophenyl)-6-(hydroxymethyl)tetrahydro-2H-pyran-3,4,5-triol] | 15 | 2540 |
| OC[C@H]1O[C@@H](c2ccc(Cl)c(Cc3ccc(OCC4Cc5ccc(F)cc5O4)cc3)c2)[C@H](O)[C@@H](O)[C@@H]1O (stereo partly drawn) [Compound I-33, (2S,3R,4R,5S,6R)-2-(4-chloro-3-(4-((6-fluoro-2,3-dihydrobenzofuran-2-yl)methoxy)benzyl)phenyl)-6-(hydroxymethyl)tetrahydro-2H-pyran-3,4,5-triol] | 6.2 | 599 |
| CC1(COc2ccc(Cc3cc([C@@H]4O[C@H](CO)[C@@H](O)[C@H](O)[C@H]4O)ccc3Cl)cc2)OCc2ccccc21 (stereo partly drawn) [Compound I-108, (2S,3R,4R,5S,6R)-2-(4-chloro-3-(4-((1-methyl-1,3-dihydroisobenzofuran-1-yl)methoxy)benzyl)phenyl)-6-(hydroxymethyl)tetrahydro-2H-pyran-3,4,5-triol] | 10.2 | 1810 |
| COc1ccc([C@@H]2O[C@H](CO)[C@@H](O)[C@H](O)[C@H]2O)cc1Cc1ccc(OCc2cc3ccccc3o2)cc1 [Compound I-5, (2S,3R,4R,5S,6R)-2-(3-(4-(benzofuran-2-ylmethoxy)benzyl)-4-methoxyphenyl)-6-(hydroxymethyl)tetrahydro-2H-pyran-3,4,5-triol] | 18 | 1510 |
| CC1(COc2ccc(Cc3cc([C@@H]4O[C@H](CO)[C@@H](O)[C@H](O)[C@H]4O)ccc3Cl)cc2)OCc2ccccc21 (single isomer, unassigned) [Compound I-115] | 12.7 | 725 |
| OC[C@H]1O[C@@H](c2ccc(Cl)c(Cc3ccc(OCc4cc5c(F)cccc5o4)cc3)c2)[C@H](O)[C@@H](O)[C@@H]1O [Compound I-7, (2S,3R,4R,5S,6R)-2-(4-chloro-3-(4-((4-fluorobenzofuran-2-yl)methoxy)benzyl)phenyl)-6-(hydroxymethyl)tetrahydro-2H-pyran-3,4,5-triol] | 14 | 444 |
| Cc1ccc([C@@H]2O[C@H](CO)[C@@H](O)[C@H](O)[C@H]2O)cc1Cc1ccc(OCc2cc3ccccc3o2)cc1 [Compound I-3, (2S,3R,4R,5S,6R)-2-(3-(4-(benzofuran-2-ylmethoxy)benzyl)-4-methylphenyl)-6-(hydroxymethyl)tetrahydro-2H-pyran-3,4,5-triol] | 5.6 | 320 |
| Cc1ccc([C@@H]2O[C@H](CO)[C@@H](O)[C@H](O)[C@H]2O)cc1Cc1ccc(OCC2(C)OCc3ccccc32)cc1 (single isomer, unassigned) [Compound I-114] | 5.2 | 997 |
| OC[C@H]1O[C@@H](c2ccc(Cl)c(Cc3ccc(OCc4cc5cc(F)ccc5o4)cc3)c2)[C@H](O)[C@@H](O)[C@@H]1O [Compound I-8, (2S,3R,4R,5S,6R)-2-(4-chloro-3-(4-((5-fluorobenzofuran-2-yl)methoxy)benzyl)phenyl)-6-(hydroxymethyl)tetrahydro-2H-pyran-3,4,5-triol] | 25 | 1440 |
| Cc1ccc([C@@H]2O[C@H](CO)[C@@H](O)[C@H](O)[C@H]2O)cc1Cc1ccc(OC[C@@H]2Cc3ccccc3O2)cc1 [Compound I-26, (2S,3R,4R,5S,6R)-2-(3-(4-(((S)-2,3-dihydrobenzofuran-2-yl)methoxy)benzyl)-4-methylphenyl)-6-(hydroxymethyl)tetrahydro-2H-pyran-3,4,5-triol] | 2.7 | 95 |
| Cc1ccc([C@@H]2O[C@H](CO)[C@@H](O)[C@H](O)[C@H]2O)cc1Cc1ccc(OCC2Cc3ccccc3O2)cc1 (stereo partly drawn) [Compound I-25, (2S,3R,4R,5S,6R)-2-(3-(4-((2,3-dihydrobenzofuran-2-yl)methoxy)benzyl)-4-methylphenyl)-6-(hydroxymethyl)tetrahydro-2H-pyran-3,4,5-triol] | 4.1 | 180 |
| OC[C@H]1O[C@@H](c2ccc(Cl)c(Cc3ccc(OCc4cc5ccc(F)cc5o4)cc3)c2)[C@H](O)[C@@H](O)[C@@H]1O [Compound I-9, (2S,3R,4R,5S,6R)-2-(4-chloro-3-(4-((6-fluorobenzofuran-2-yl)methoxy)benzyl)phenyl)-6-(hydroxymethyl)tetrahydro-2H-pyran-3,4,5-triol] | 13 | 151 |
| Cc1ccc([C@@H]2O[C@H](CO)[C@@H](O)[C@H](O)[C@H]2O)cc1Cc1ccc(OCC2(C)OCc3ccccc32)cc1 (single isomer, unassigned) [Compound I-113] | 18.6 | 655 |
| Cc1ccc([C@@H]2O[C@H](CO)[C@@H](O)[C@H](O)[C@H]2O)cc1Cc1ccc(OCC2Cc3ccccc3O2)cc1 (single isomer, unassigned) [Compound I-27] | 4.3 | 396 |
| OC[C@H]1O[C@@H](c2ccc(Cl)c(Cc3ccc(OC[C@H]4Cc5ccccc5O4)cc3)c2)[C@H](O)[C@@H](O)[C@@H]1O [Compound I-24, (2S,3R,4R,5S,6R)-2-(4-chloro-3-(4-(((R)-2,3-dihydrobenzofuran-2-yl)methoxy)benzyl)phenyl)-6-(hydroxymethyl)tetrahydro-2H-pyran-3,4,5-triol] | 4.3 | 1190 |
| CC1(COc2ccc(Cc3cc([C@@H]4O[C@H](CO)[C@@H](O)[C@H](O)[C@H]4O)ccc3Cl)cc2)Cc2ccccc2O1 (single isomer, unassigned) [Compound I-106] | 18.2 | 700 |
| OC[C@H]1O[C@@H](c2ccc(Cl)c(Cc3ccc(OC[C@H]4OCc5ccccc54)cc3)c2)[C@H](O)[C@@H](O)[C@@H]1O [Compound I-37, (2S,3R,4R,5S,6R)-2-(4-chloro-3-(4-(((S)-1,3-dihydroisobenzofuran-1-yl)methoxy)benzyl)phenyl)-6-(hydroxymethyl)tetrahydro-2H-pyran-3,4,5-triol] | 2 | 615 |
